Results: US20130102619A1, “2-PYRIDYLOXY-4-NITRILE OREXIN RECEPTOR ANTAGONISTS” (priority 2011, published 2013)
pIC50, pKi: −log10 of the molar value.

Tests used:
human orexin-2 receptor [1] = target: T1, human orexin-2 receptor (Homo sapiens (Human), UniProt O43614); experiment: FLIPR Ca2+ Flux Assay, CHO cells expressing human orexin-2 receptor; type: cell-based; conditions: 70 pM Ala-6,12 orexin-A agonist, read-out: hOX2R FLIPR IC50
Description: (§1) The utility of the compounds in accordance with the present invention as orexin receptor OX1R and/or OX2R antagonists may be readily determined without undue experimentation by methodology well known in the art, including the “FLIPR Ca^2+ Flux Assay” (Okumura et al., Biochem. Biophys. Res. Comm. 280:976-981, 2001). In a typical experiment the OX1 and OX2 receptor antagonistic activity of the compounds of the present invention was determined in accordance with the following experimental method. For intracellular calcium measurements, Chinese hamster ovary (CHO) cells expressing the rat orexin-1 receptor or the human orexin-2 receptor, are grown in Iscove's modified DMEM containing 2 mM L-glutamine, […], 1% hypoxanthine-thymidine supplement, 100 U/ml penicillin, 100 ug/ml streptomycin and 10% heat-inactivated fetal calf serum (FCS). The cells are seeded at 20,000 cells/well into Becton-Dickinson black 384-well clear bottom sterile plates coated with poly-D-lysine. All reagents were from GIBCO-Invitrogen Corp. The seeded plates are incubated overnight at 37° C. and 5% CO2. Ala-6,12 human orexin-A as the agonist is prepared as a 1 mM stock solution in 1% bovine serum albumin (BSA) and diluted in assay buffer (HBSS containing 20 mM HEPES, 0.1% BSA and 2.5 mM probenecid, pH7.4) for use in the assay at a final concentration of 70 pM. Test compounds are prepared as 10 mM stock solution in DMSO, then diluted in 384-well plates, first in DMSO, then assay buffer. On the day of the assay, cells are washed 3 times with 100 ul assay buffer and then incubated for 60 min (37° C., 5% CO2) in 60 ul assay buffer containing 1 uM Fluo-4AM ester, 0.02% pluronic acid, and 1% BSA. The dye loading solution is then aspirated and cells are washed 3 times with 100 ul assay buffer. 30 ul of that same buffer is left in each well. Within the Fluorescent Imaging Plate Reader (FLIPR, Molecular Devices), test compounds are added to the plate in a volume of 25 ul, incubated for 5 min and finally 25 ul of agonist is added. Fluorescence is measured for each well at 1 second intervals for 5 minutes and the height of each fluorescence peak is compared to the height of the fluorescence peak induced by 70 pM Ala-6,12 orexin-A with buffer in place of antagonist. […] Alternatively, compound potency can be assessed by a radioligand binding assay (described in Bergman et. al. Bioorg. Med. Chem. Lett. 2008, 18, 1425-1430) in which the inhibition constant (Ki) is determined in membranes prepared from CHO cells expressing either the OX1 or OX2 receptor. The intrinsic orexin receptor antagonist activity of a compound which may be used in the present invention may be determined by these assays.

rat orexin-1 receptor = rat orexin-1 receptor (Rattus norvegicus (Rat), UniProt P56718); experiment: FLIPR Ca2+ Flux Assay, CHO cells expressing rat orexin-1 receptor; type: cell-based; conditions: 70 pM Ala-6,12 orexin-A agonist, read-out: hOX1R FLIPR IC50;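 also: concentration giving 50% inhibition of the agonist-induced calcium response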
Description: as §1

human orexin-2 receptor [2] = target: T1, human orexin-2 receptor; experiment: radioligand binding assay, orexin-2 receptor (membranes from CHO cells); conditions: CHO cell membranes, read-out: hOX2 hKi
Description: as §1

OX1 receptor (hOX1) = OX1 receptor (hOX1) (Homo sapiens, UniProt O43613); experiment: radioligand binding assay, orexin-1 receptor (membranes from CHO cells); conditions: CHO cell membranes, read-out: hOX1 hKi
Description: In a typical experiment the OX1 and OX2 receptor antagonistic activity of the compounds of the present invention was determined in accordance with the following experimental method. For intracellular calcium measurements, Chinese hamster ovary (CHO) cells expressing the rat orexin-1 receptor or the human orexin-2 receptor, are grown in Iscove's modified DMEM containing 2 mM L-glutamine, […], 1% hypoxanthine-thymidine supplement, 100 U/ml penicillin, 100 ug/ml streptomycin and 10% heat-inactivated fetal calf serum (FCS). The cells are seeded at 20,000 cells/well into Becton-Dickinson black 384-well clear bottom sterile plates coated with poly-D-lysine. All reagents were from GIBCO-Invitrogen Corp. The seeded plates are incubated overnight at 37° C. and 5% CO2. Ala-6,12 human orexin-A as the agonist is prepared as a 1 mM stock solution in 1% bovine serum albumin (BSA) and diluted in assay buffer (HBSS containing 20 mM HEPES, 0.1% BSA and 2.5 mM probenecid, pH7.4) for use in the assay at a final concentration of 70 pM. Test compounds are prepared as 10 mM stock solution in DMSO, then diluted in 384-well plates, first in DMSO, then assay buffer. On the day of the assay, cells are washed 3 times with 100 ul assay buffer and then incubated for 60 min (37° C., 5% CO2) in 60 ul assay buffer containing 1 uM Fluo-4AM ester, 0.02% pluronic acid, and 1% BSA. The dye loading solution is then aspirated and cells are washed 3 times with 100 ul assay buffer. 30 ul of that same buffer is left in each well. Within the Fluorescent Imaging Plate Reader (FLIPR, Molecular Devices), test compounds are added to the plate in a volume of 25 ul, incubated for 5 min and finally 25 ul of agonist is added. Fluorescence is measured for each well at 1 second intervals for 5 minutes and the height of each fluorescence peak is compared to the height of the fluorescence peak induced by 70 pM Ala-6,12 orexin-A with buffer in place of antagonist. […] Alternatively, compound potency can be assessed by a radioligand binding assay (described in Bergman et. al. Bioorg. Med. Chem. Lett. 2008, 18, 1425-1430) in which the inhibition constant (Ki) is determined in membranes prepared from CHO cells expressing either the OX1 or OX2 receptor. The intrinsic orexin receptor antagonist activity of a compound which may be used in the present invention may be determined by these assays.

T1 sequence (O43614 whole entry): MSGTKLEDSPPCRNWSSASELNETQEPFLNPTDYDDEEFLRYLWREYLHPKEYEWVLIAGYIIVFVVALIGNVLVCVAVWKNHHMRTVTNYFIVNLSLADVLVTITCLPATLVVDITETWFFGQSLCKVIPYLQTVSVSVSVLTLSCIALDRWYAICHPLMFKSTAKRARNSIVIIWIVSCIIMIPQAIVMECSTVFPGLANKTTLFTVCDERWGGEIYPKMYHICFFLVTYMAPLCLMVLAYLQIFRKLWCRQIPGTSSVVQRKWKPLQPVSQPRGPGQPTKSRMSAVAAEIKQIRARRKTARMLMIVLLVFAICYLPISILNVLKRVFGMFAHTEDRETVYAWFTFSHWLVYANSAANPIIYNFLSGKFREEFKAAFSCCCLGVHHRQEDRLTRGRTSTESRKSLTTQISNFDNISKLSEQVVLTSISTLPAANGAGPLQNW
Sequence of rat orexin-1 receptor (P56718 whole entry): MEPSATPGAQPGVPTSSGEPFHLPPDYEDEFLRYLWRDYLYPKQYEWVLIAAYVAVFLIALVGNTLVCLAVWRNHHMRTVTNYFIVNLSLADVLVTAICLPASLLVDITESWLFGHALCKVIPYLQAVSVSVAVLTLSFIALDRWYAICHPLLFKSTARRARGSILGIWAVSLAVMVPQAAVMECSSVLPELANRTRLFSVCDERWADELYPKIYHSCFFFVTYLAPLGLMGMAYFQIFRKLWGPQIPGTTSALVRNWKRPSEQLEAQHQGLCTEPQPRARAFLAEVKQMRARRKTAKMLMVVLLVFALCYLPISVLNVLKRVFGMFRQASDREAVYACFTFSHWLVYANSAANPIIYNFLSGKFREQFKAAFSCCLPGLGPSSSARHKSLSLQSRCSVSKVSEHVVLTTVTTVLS

| Structure (SMILES) | pIC50 (human orexin-2 receptor [1]) | pIC50 (rat orexin-1 receptor) | pKi (human orexin-2 receptor [2]) | pKi (OX1 receptor (hOX1)) |
| --- | --- | --- | --- | --- |
| Cc1cccc(-n2nccn2)c1C(=O)N1C[C@H](Oc2cc(C#N)ccn2)CC[C@H]1C [Example 4, 2-{[(3R,6R)-6-methyl-1-{[2-methyl-6-(2H-1,2,3-triazol-2-yl)phenyl]carbonyl}piperidin-3-yl]oxy}pyridine-4-carbonitrile] | 7.54 | < 5.00 | 8.64 | 6.03 |
| Cc1cccc(C(=O)N2C[C@H](Oc3cc(C#N)ccn3)CC[C@H]2C)c1-n1nccn1 [Example 5, 2-{[(3R,6R)-6-methyl-1-{[3-methyl-2-(2H-1,2,3-triazol-2-yl)phenyl]carbonyl}piperidin-3-yl]oxy}pyridine-4-carbonitrile] | 7.77 | 5.63 | 8.52 | 6.17 |
| C[C@@H]1CC[C@@H](Oc2cc(C#N)ccn2)CN1C(=O)c1cccc(F)c1-n1nccn1 [Example 6, 2-{[(3R,6R)-1-{[3-fluoro-2-(2H-1,2,3-triazol-2-yl)phenyl]carbonyl}-6-methylpiperidin-3-yl]oxy}pyridine-4-carbonitrile] | 7.74 | < 5.00 | 8.26 | 5.72 |
| C[C@@H]1CC[C@@H](Oc2cc(C#N)ccn2)CN1C(=O)c1ccc(Cl)cc1-n1nccn1 [Example 7, 2-{[(3R,6R)-1-{[4-chloro-2-(2H-1,2,3-triazol-2-yl)phenyl]carbonyl}-6-methylpiperidin-3-yl]oxy}pyridine-4-carbonitrile] | 7.77 | 5.42 | 8.96 | 6.00 |
| C[C@@H]1CC[C@@H](Oc2cc(C#N)ccn2)CN1C(=O)c1nscc1-n1nccn1 [Example 11, 2-{[(3R,6R)-6-methyl-1-{[4-(2H-1,2,3-triazol-2-yl)isothiazol-3-yl]carbonyl}piperidin-3-yl]oxy}pyridine-4-carbonitrile] |  |  | 7.03 | 4.89 |
| C[C@@H]1CC[C@@H](Oc2cc(C#N)ccn2)CN1C(=O)c1cn(C)nc1-n1nccn1 [Example 12, 2-{[(3R,6R)-6-methyl-1-{[1-methyl-3-(2H-1,2,3-triazol-2-yl)-1H-pyrazol-4-yl]carbonyl}piperidin-3-yl]oxy}pyridine-4-carbonitrile] |  |  | 6.82 | 5.25 |
| Cc1nsc(-n2nccn2)c1C(=O)N1C[C@H](Oc2cc(C#N)ccn2)CC[C@H]1C [Example 13, 2-{[(3R,6R)-6-methyl-1-{[3-methyl-5-(2H-1,2,3-triazol-2-yl)isothiazol-4-yl]carbonyl}piperidin-3-yl]oxy}pyridin-4-carbonitrile] |  |  | 6.86 | 4.46 |
| C[C@@H]1CC[C@@H](Oc2cc(C#N)ccn2)CN1C(=O)c1cc(Cl)ccc1-n1nccn1 [Example 16, 2-{[(3R,6R)-1-{[5-chloro-2-(2H-1,2,3-triazol-2-yl)phenyl]carbonyl}-6-methylpiperidin-3-yl]oxy}pyridine-4-carbonitrile] |  |  | 7.24 | 5.25 |
| C[C@@H]1CC[C@@H](Oc2cc(C#N)ccn2)CN1C(=O)c1cc(C(N)=O)ccc1-n1nccn1 [Example 18, 3-({(2R,5R)-5-[(4-cyanopyridin-2-yl)oxy]-2-methylpiperidin-1-yl}carbonyl)-4-(2H-1,2,3-triazol-2-yl)benzamide] |  |  | 6.87 | 5.89 |
| CCOc1ccc(C(=O)N2C[C@H](Oc3cc(C#N)ccn3)CC[C@H]2C)c(-n2nccn2)c1 [Example 21, 2-{[(3R,6R)-1-{[4-ethoxy-2-(2H-1,2,3-triazol-2-yl)phenyl]carbonyl}-6-methylpiperidin-3-yl]oxy}pyridine-4-carbonitrile] |  |  | 5.41 | 4.63 |
| C[C@@H]1CC[C@@H](Oc2cc(C#N)ccn2)CN1C(=O)c1ccc(OCF)cc1-n1nccn1 [Example 23, 2-{[(3R,6R)-1-{[4-(fluoromethoxy)-2-(2H-1,2,3-triazol-2-yl)phenyl]carbonyl}-6-methylpiperidin-3-yl]oxy}pyridine-4-carbonitrile] |  |  | 7.46 | 5.11 |
| C[C@@H]1CC[C@@H](Oc2cc(C#N)ccn2)CN1C(=O)c1ccc(OC(F)F)cc1-n1nccn1 [Example 24, 2-{[(3R,6R)-1-{[4-(difluoromethoxy)-2-(2H-1,2,3-triazol-2-yl)phenyl]carbonyl}-6-methylpiperidin-3-yl]oxy}pyridine-4-carbonitrile] |  |  | 7.10 | 4.62 |
| C[C@@H]1CC[C@@H](Oc2cc(C#N)ccn2)CN1C(=O)c1ccc(OCCO)cc1-n1nccn1 [Example 25, 2-{[(3R,6R)-1-{[4-(2-hydroxyethoxy)-2-(2H-1,2,3-triazol-2-yl)phenyl]carbonyl}-6-methylpiperidin-3-yl]oxy}pyridine-4-carbonitrile] |  |  | 4.96 | 5.02 |
| Cc1ccc(C(=O)N2C[C@H](Oc3cc(C#N)ccn3)CC[C@H]2C)c(-n2nccn2)n1 [Example 26, 2-{[(3R,6R)-6-methyl-1-{[6-methyl-2-(2H-1,2,3-triazol-2-yl)pyridin-3-yl]carbonyl}piperidin-3-yl]oxy}pyidine-4-carbonitrile] |  |  | 6.79 | 5.02 |
| C[C@@H]1CC[C@@H](Oc2cc(C#N)ccn2)CN1C(=O)c1ccc(C(F)(F)F)nc1-n1nccn1 [Example 27, 2-{[(3R,6R)-6-methyl-1-{[2-(2H-1,2,3-triazol-2-yl)-6-(trifluoromethyl)pyridin-3-yl]carbonyl}piperidin-3-yl]oxy}pyridine-4-carbonitrile] |  |  | 5.98 | 5.02 |
| COc1ccc(C(=O)N2C[C@H](Oc3cc(C#N)ccn3)CC[C@H]2C)c(Cl)n1 [Example 28, 2-({(3R,6R)-1-[(2-chloro-6-methoxypyridin-3-yl)carbonyl]-6-methylpiperidin-3-yl}oxy)pyridine-4-carbonitrile] |  |  | 6.21 | 5.55 |
| C[C@@H]1CC[C@@H](Oc2cc(C#N)ccn2)CN1C(=O)c1ccccc1-n1ncnn1 [Example 30, 2-{[(3R,6R)-6-methyl-1-{[2-(2H-tetrazol-2-yl)phenyl]carbonyl}piperidin-3-yl]oxy}pyridine-4-carbonitrile] | 6.96 | > 5.00 |  |  |
| C[C@@H]1CC[C@@H](Oc2cc(C#N)ccn2)CN1C(=O)c1ccsc1-c1ncccn1 [Example 32, 2-({(3R,6R)-6-methyl-1-[(2-pyrimidin-2-ylthiophen-3-yl)carbonyl]piperidin-3-yl}oxy)pyridine-4-carbonitrile] | 7.36 | 5.17 | 8.68 |  |
